The target of one series is T1, human TGR5 (Homo sapiens, UniProt Q8TDU6).
T1 construct: expressed in transfected cells
T1 sequence (Q8TDU6 1-330): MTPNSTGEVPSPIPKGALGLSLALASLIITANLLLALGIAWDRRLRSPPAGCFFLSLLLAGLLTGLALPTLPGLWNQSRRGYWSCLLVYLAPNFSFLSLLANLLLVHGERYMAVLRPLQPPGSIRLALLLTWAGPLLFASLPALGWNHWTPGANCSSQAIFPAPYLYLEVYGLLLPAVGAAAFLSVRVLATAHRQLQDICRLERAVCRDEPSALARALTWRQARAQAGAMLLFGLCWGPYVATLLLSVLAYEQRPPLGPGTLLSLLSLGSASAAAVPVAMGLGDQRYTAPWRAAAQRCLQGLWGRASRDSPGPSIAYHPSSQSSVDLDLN
In words: cAMP assay, HEK293 cells stably expressing human TGR5. It counts as cell-based. The protocol: The changes in cAMP elicited by these bile acid derivatives was determined after binding to the TGR5. […] HEK293 cells stably expressing human TGR5 were treated with increasing doses of ligand after 6 hours of stimulation, and intracellular cAMP levels were measured by luminescence. […] Data analysis to determine EC50 values was performed with GraphPad Prism software using a cAMP standard curve and sigmoidal dose-response (variable slope) equation based on dose-response curves with tested compounds.

Consider four compounds from patent US20140206657A1, “BILE ACID ANALOG TGR5 AGONISTS” (City of Hope, priority 2013, published 2014).

The compound `CC[C@H]1C[C@@H]2[C@H](CC[C@]3(C)[C@@H]([C@H](C)C[C@H](C)C(=O)O)CC[C@@H]23)[C@@]2(C)CC[C@@H](O)C[C@@H]12` displayed a melting point of 137.7 °C.
The compound `C[C@H](C[C@H](C)C(=O)O)[C@H]1CC[C@H]2[C@@H]3CC[C@@H]4C[C@H](O)CC[C@]4(C)[C@H]3CC[C@]12C` [compound 13, 23(S)-Methyl-3α-hydroxy-5β-cholan-24-oic acid] came in with a half-maximal effective concentration (EC50) on human TGR5 of 210 nM.
Compound `CC[C@H]1[C@H](O)[C@@H]2[C@H](CC[C@]3(C)[C@@H]([C@H](C)C[C@H](C)C(=O)O)CC[C@@H]23)[C@@]2(C)CC[C@@H](O)C[C@@H]12` [compound 24, 3α,7β-Dihydroxy-23(S)-methyl-6α-ethyl-5β-cholan-24-oic acid] gave a 50% effective concentration (EC50) at human TGR5 of 710 nM.
For the compound `CC[C@@]1(O)CC[C@@]2(C)[C@H](CC[C@@H]3[C@@H]2CC[C@]2(C)[C@@H]([C@H](C)CCC(=O)O)CC[C@@H]32)C1` [compound 26, 3β-Ethyl-3α-hydroxy-LCA], the “TGR5 activity / potency, in words (SAR statements)” value at human TGR5 (assay not named in b266 and b269, b275 belongs to the cAMP example) is on record as “large loss in potency”.
